Experimental data taken from patent publication US20250059187A1, “COVALENTLY BINDING INHIBITORS OF G12S, G12D AND/OR G12E MUTANTS OF K-RAS GTPASE” (The Regents of the University of California, priority 2021, published 2025).

Tests used:
[1] = test system: A549 cells (homozygous KRAS p.G12S mutation); assay: Immunoblot and Raf-RBD pulldown in A549 cells; type: cell-based; settings: 10 μM, 2 h
Procedure: Cells were passed for at least two generations after cryorecovery before they were used for assays. All cell lines were tested mycoplasma negative using MycoAlert™ Mycoplasma Detection Kit (Lonza). When indicated, cells were treated with drugs at 40-60% confluency at a final DMSO concentration of 1%. At the end of treatment period, cells were placed on ice. Unless otherwise indicated, adherent cells were washed once with ice-cold PBS (1 mL), scraped with a spatula, and pelleted by centrifugation (500×g, 5 min). Suspension cells were pelleted by centrifugation (500×g, 5 min), washed with 1 mL ice-cold PBS, and pelleted again. Cells were lysed in RIPA buffer supplemented with protease and phosphatase inhibitors (cOmplete and phosSTOP, Roche) on ice for 10 min. For RBD pulldown experiments, cells were lysed in Co-IP Lysis Buffer in lieu of RIPA buffer. Lysates were clarified by high-speed centrifugation (19,000×g, 10 min). Concentrations of lysates were determined with protein BCA assay (Thermo Fisher) and adjusted to 2 mg/mL with additional RIPA buffer (or Co-IP Lysis Buffer). Samples were mixed with 5×SDS Loading Dye and heated at 95° C. for 5 min.
Ras·GTP pulldown was performed with GST-RBD agarose beads (Cytoskeleton, 10 μL, 30 μg loaded GST-RBD). 50 μL lysate (2 mg/mL) was mixed with 10 μL beads, and the suspension was incubated at 4° C. for 1 h with constant end-to-end rotation. The beads were settled by centrifugation (500×g, 5 min) and the supernatant was carefully removed. The beads were washed with 2×500 μL ice-cold Co-IP wash buffer. Bound protein was eluted with 10 μL 2×SDS Loading Buffer.
Membranes were blocked in 5% BSA-TBST for 1 h at 23° C. […] After washing the membrane three times with TBST (5 min each wash), secondary antibodies (goat anti-rabbit IgG-IRDye 800 and goat anti-mouse IgG-IRDye 680, Li-COR) were added as solutions in 5% skim milk-TBST at the dilutions recommended by the manufacturer. Secondary antibody binding was allowed to proceed for 1 h at 23° C. The membrane was washed three times with TBST (5 min each wash) and imaged on a Li-COR Odyssey fluorescence imager.

[2] = biological target: K-Ras(G12S) (Homo sapiens, UniProt P01116, G12S); assay: Covalent modification of recombinant K-Ras(G12S) by whole-protein mass spectrometry; type: binding; design: human K-Ras (G12S, aa 1-169); 6xHis tag + TEV cleavage site (N, cleaved yes); made in house; host or cells: E. coli BL21(DE3); settings: 23° C.; for covalent reaction with K-Ras(G12S)·GDP: 10 μM compound; for % covalent modification of K-Ras G12S: 24-h incubation, 100 μM compound, pH 7.5
Procedure: (§1) Test compounds were prepared as 100× stock solutions in DMSO. K-Ras proteins were diluted with SEC Buffer (20 mM HEPES 7.5, 150 mM NaCl, 1 mM MgCl2) to 400 nM or 1 μM. In a typical reaction, 0.5 μL 100× compound stock was mixed with 50 μL diluted K-Ras protein, and the resulting mixture was incubated for the desired amount of time. The extent of modification was assessed by electrospray mass spectrometry using a Waters Xevo G2-XS system equipped with an Acquity UPLC BEH C4 1.7 μm column. […] For kinetic measurements, a 2× compound solution was first prepared in SEC Buffer, which was then mixed with 400 nM K-Ras(G12S) protein at 1:1 (v/v) ratio. Injection time stamps were used to calculate elapsed time.
as §1, with “K-Ras(G12D)” for “K-Ras(G12S)”

[3] = biological target: T1, wild type K-Ras (Homo sapiens, UniProt P01116); assay: Covalent modification of recombinant wild-type K-Ras by whole-protein mass spectrometry; type: binding; settings: 24-h incubation, 100 μM compound, 23° C., pH 7.5
T1 construct: human K-Ras (wildtype, aa 1-169); 6xHis tag + TEV cleavage site (N, cleaved yes); made in house; host or cells: E. coli BL21(DE3)
Procedure: (§2) Test compounds were prepared as 100× stock solutions in DMSO. K-Ras proteins were diluted with SEC Buffer (20 mM HEPES 7.5, 150 mM NaCl, 1 mM MgCl2) to 400 nM or 1 μM. In a typical reaction, 0.5 μL 100× compound stock was mixed with 50 μL diluted K-Ras protein, and the resulting mixture was incubated for the desired amount of time. The extent of modification was assessed by electrospray mass spectrometry using a Waters Xevo G2-XS system equipped with an Acquity UPLC BEH C4 1.7 μm column. The mobile phase was a linear gradient of 5-95% acetonitrile/water+0.05% formic acid. For kinetic measurements, a 2× compound solution was first prepared in SEC Buffer, which was then mixed with 400 nM K-Ras(G12S) protein at 1:1 (v/v) ratio. Injection time stamps were used to calculate elapsed time.
as §2, with “K-Ras(G12D)” for “K-Ras(G12S)”

[4] = biological target: T2, K-Ras G12D (Homo sapiens, UniProt P01116, G12D); assay: Covalent modification of test protein after incubation with compound; type: binding; settings: 24-h incubation with 100 μM compound at 23° C. at pH 7.5
T2 construct: human K-Ras (G12D, aa 1-169); 6xHis tag + TEV cleavage site (N, cleaved yes); made in house; host or cells: E. coli BL21(DE3)

[5] = biological target: T3, K-Ras G12E (Homo sapiens, UniProt P01116, G12E); assay: as above; type: binding; settings: 24-h incubation with 100 μM compound at 23° C. at pH 7.5
T3 construct: human K-Ras (G12E, aa 1-169); 6xHis tag + TEV cleavage site (N, cleaved yes); made in house; host or cells: E. coli BL21(DE3)

[6] = biological target: T1, wild type K-Ras; assay: as above; type: binding; settings: 24-h incubation with 100 μM compound at 23° C. at pH 7.5
[7] = test system: BaF3/K-Ras(G12D) cells; assay: Growth inhibition of BaF3/K-Ras(G12D) cells; type: cell-based, murine; settings: Mus musculus, 95% CI: 3.1-6.3 μM, read-out: IC50, BaF3/K-Ras(G12D) proliferation
Procedure: Cells were seeded into 96-well white flat bottom plates (1,000 cells/well) (Corning) and incubated overnight. Cells were treated with the indicated compounds in a nine-point threefold dilution series (100 μL final volume) and incubated for 72 h. Cell viability was assessed using a commercial CellTiter-Glo (CTG) luminescence-based assay (Promega). Briefly, the 96-well plates were equilibrated to room temperature before the addition of diluted CTG reagent […] (1:4 CTG reagent:PBS). Plates were placed on an orbital shaker for 30 min before recording luminescence using a Spark 20M (Tecan) plate reader.

[8] = biological target: T2, K-Ras G12D; assay: Covalent modification of recombinant K-Ras(G12D) by whole-protein mass spectrometry; type: binding
Procedure: as §2, with “K-Ras(G12D)” for “K-Ras(G12S)”

[9] = Stability of substituted β-lactones in PBS 7.4 at 23° C.; type: physicochemical; settings: PBS, pH 7.4, read-out: half-life (hydrolysis) (converted)
[10] = biological target: T2, K-Ras G12D; assay: Differential scanning fluorimetry of K-Ras(G12D) and its covalent adducts; type: binding
Procedure: The protein of interest was diluted with SEC Buffer [20 mM HEPES 7.5, 150 mM NaCl, 1 mM MgCl2] to 8 μM. This solution was dispensed into wells of a white 96-well PCR plate in triplicate (25 μL/well). Fluorescence was measured at 0.5-° C. temperature intervals every 30 s from 25° C. to 95° C. on a Bio-Rad CFX96 qPCR system using the FRET setting. Each data set was normalized to the highest fluorescence and the normalized fluorescence reading was plotted against temperature in GraphPad Prism 8.0. Tm values were determined as the temperature(s) corresponding to the maximum(ma) of the first derivative of the curve.

Row | SMILES | covalent reaction with K-Ras(G12S)·GDP [2] | % covalent modification of wild type K-Ras [3] [%] | % covalent modification of K-Ras G12D [4] [%] | % covalent modification of K-Ras G12E [5] [%] | % covalent modification of wild type K-Ras [6] [%] | % covalent modification of K-Ras G12S [2] [%] | thermal stabilization of K-Ras(G12D)·GDP ([10]; GDP state) | thermal stabilization of K-Ras(G12D)·GppNHp ([10]; GppNHp state) | effects on phospho-Akt, phospho-Erk and Ras·GTP levels [1] | IC50 [7] [µM] | reactivity with K-Ras(G12D)·GDP [8] | half-life [9] [h]
1 | CN1CCC[C@H]1COc1nc2c(c(N3CC[C@H]4C(=O)O[C@H]4C3)n1)CCN(c1cccc3cccc(Cl)c13)C2 [3′] | enhanced reaction | – | – | – | – | – | – | – | neither adagrasib nor 3′ had any observable effects on these markers | – | – | –
2 | O=C1O[C@H]2CN(c3nc(OCC45CCCN4CCC5)nc4c3CCN(c3cccc5cccc(Cl)c35)C4)CC[C@@H]12 [4′] | enhanced reaction | 0 | 0 | 0 | 0 | 100 | – | – | decreased the level of Ras·GTP | – | – | –
3 | CC(C)[C@H]1C(=O)O[C@@H]1C(=O)N1[C@@H]2CC[C@H]1CN(c1nc(OCC34CCCN3CCC4)nc3c(F)c(-c4cccc5cccc(Cl)c45)ncc13)C2 [(2S, 3R)-4] | – | – | – | – | – | – | – | – | – | 4.4 | did not show any detectable reactivity | –
4 | O=C1C[C@H](C(=O)N2[C@@H]3CC[C@H]2CN(c2nc(OCC45CCCN4CCC5)nc4c(F)c(-c5cccc6cccc(Cl)c56)ncc24)C3)O1 [Compound 2] | – | – | – | – | – | – | – | – | – | – | the R enantiomer was more reactive toward K-Ras(G12D)·GDP | 1.7
5 | C[C@@H]1C(=O)O[C@H]1C(=O)N1[C@@H]2CC[C@H]1CN(c1nc(OCC34CCCN3CCC4)nc3c(F)c(-c4cccc5cccc(Cl)c45)ncc13)C2 [Compound 3] | – | – | – | – | – | – | – | – | – | – | – | 2.5
6 | CN1CCC[C@@H]1COc1nc2c(c(N3CCC4(CC3)CN(S(=O)(=O)O)C4=O)n1)CCN(c1cccc3cccc(Cl)c13)C2 [Compound 12-087] | – | 0 | 0 | 0 | 0 | 0 | – | – | – | – | – | –
7 | O=C1CC(C(=O)N2[C@@H]3CC[C@H]2CN(c2nc(OCC45CCCN4CCC5)nc4c(F)c(-c5cccc6cccc(Cl)c56)ncc24)C3)O1 (stereo partly drawn) [Compound 14-036] | – | 22.0 | 100 | 42.0 | 22.0 | 42.0 | – | – | – | – | – | –

The next lines start with results.

Row | covalent reaction with K-Ras(G12S)·GDP [2] | % covalent modification of wild type K-Ras [3] [%] | % covalent modification of K-Ras G12D [4] [%] | % covalent modification of K-Ras G12E [5] [%] | % covalent modification of wild type K-Ras [6] [%] | % covalent modification of K-Ras G12S [2] [%] | thermal stabilization of K-Ras(G12D)·GDP ([10]; GDP state) | thermal stabilization of K-Ras(G12D)·GppNHp ([10]; GppNHp state) | SMILES | effects on phospho-Akt, phospho-Erk and Ras·GTP levels [1] | IC50 [7] [µM] | reactivity with K-Ras(G12D)·GDP [8] | half-life [9] [h]
8 | – | 73.7 | 75.7 | 72.6 | 73.7 | 72.1 | – | – | CN1CCC[C@@H]1COc1nc2c(c(N3CCC4(CC3)COC4=O)n1)CCN(c1cccc3cccc(Cl)c13)C2 [Compound 13-005] | – | – | – | –
9 | – | 0 | 0 | 0 | 0 | 0 | – | – | CN1CCC[C@@H]1COc1nc2c(c(N3CCC4(CC3)CC(=O)O4)n1)CCN(c1cccc3cccc(Cl)c13)C2 [Compound 13-006] | – | – | – | –
10 | – | 85.8 | 87.8 | 75.1 | 85.8 | 92.8 | – | – | O=C1OCC12CCN(c1nc(OCC34CCCN3CCC4)nc3c1CCN(c1cccc4cccc(Cl)c14)C3)CC2 [Compound 13-018] | – | – | – | –
11 | – | 0 | 0 | 0 | 0 | 42.5 | – | – | O=C1OCC12CCN(c1nc(OCC34CCCN3CCC4)nc3c(F)c(-c4cccc5cccc(Cl)c45)ncc13)CC2 [Compound 13-037] | – | – | – | –
12 | – | 0 | 100 | 38.0 | 0 | 100 | stabilized K-Ras(G12D)·GDP | stabilized K-Ras(G12D)·GppNHp | N#CC[C@H]1CN(c2nc(OCC34CCCN3CCC4)nc3c(F)c(-c4cccc5cccc(Cl)c45)ncc23)CCN1C(=O)C1CC(=O)O1 (stereo partly drawn) [Compound 14-005] | – | – | – | –
